{"source": "ChEMBL document CHEMBL4814067", "about": "“An optimized analog of antimicrobial peptide Jelleine-1 shows enhanced antimicrobial activity against multidrug resistant P. aeruginosa and negligible toxicity in vitro and in vivo” (Eur J Med Chem, 2021)", "key": {"Bacillus subtilis": {"system": "Bacillus subtilis", "assay": "Antibacterial activity against Bacillus subtilis ATCC 23857 assessed as transparent well by visual inspection after 18 hrs by CLSI based-broth microdilution method", "format": "functional"}, "[1]": {"system": "Staphylococcus epidermidis", "assay": "Antibacterial activity against Staphylococcus epidermidis ATCC 12228 assessed as transparent well by visual inspection after 18 hrs by CLSI based-broth microdilution method", "format": "functional"}, "Escherichia coli [2]": {"system": "Escherichia coli", "assay": "Antibacterial activity against Escherichia coli ATCC 25922 assessed as transparent well by visual inspection after 18 hrs by CLSI based-broth microdilution method", "format": "functional"}, "Staphylococcus aureus [3]": {"system": "Staphylococcus aureus", "assay": "Antibacterial activity against Staphylococcus aureus ATCC 29213 assessed as transparent well by visual inspection after 18 hrs by CLSI based-broth microdilution method", "format": "functional", "conditions": "C1 ATCC 29213"}, "Enterobacter sp.": {"system": "Enterobacter sp.", "assay": "Antibacterial activity against Enterobacter sakazakii ATCC 29544 assessed as transparent well by visual inspection after 18 hrs by CLSI based-broth microdilution method", "format": "functional"}, "Pseudomonas aeruginosa [4]": {"system": "Pseudomonas aeruginosa", "assay": "Antibacterial activity against Pseudomonas aeruginosa ATCC 27853 assessed as transparent well by visual inspection after 18 hrs by CLSI based-broth microdilution method", "format": "functional"}, "Staphylococcus aureus [5]": {"system": "Staphylococcus aureus", "assay": "Antibacterial activity against methicillin resistant Staphylococcus aureus clinical isolate 3 assessed as transparent well by visual inspection after 18 hrs by CLSI based-broth microdilution method", "format": "functional"}, "Escherichia coli [6]": {"system": "Escherichia coli", "assay": "Antibacterial activity against ESBL-producing Escherichia coli clinical isolate 4 assessed as transparent well by visual inspection after 18 hrs by CLSI based-broth microdilution method", "format": "functional"}, "Staphylococcus aureus [7]": {"system": "Staphylococcus aureus", "assay": "Antibacterial activity against methicillin resistant Staphylococcus aureus clinical isolate 2 assessed as transparent well by visual inspection after 18 hrs by CLSI based-broth microdilution method", "format": "functional"}, "Staphylococcus aureus [8]": {"system": "Staphylococcus aureus", "assay": "Antibacterial activity against methicillin resistant Staphylococcus aureus clinical isolate 4 assessed as transparent well by visual inspection after 18 hrs by CLSI based-broth microdilution method", "format": "functional"}, "Escherichia coli [9]": {"system": "Escherichia coli", "assay": "Antibacterial activity against ESBL-producing Escherichia coli clinical isolate 2 assessed as transparent well by visual inspection after 18 hrs by CLSI based-broth microdilution method", "format": "functional"}, "Escherichia coli [10]": {"system": "Escherichia coli", "assay": "Antibacterial activity against ESBL-producing Escherichia coli clinical isolate 5 assessed as transparent well by visual inspection after 18 hrs by CLSI based-broth microdilution method", "format": "functional"}, "Escherichia coli [11]": {"system": "Escherichia coli", "assay": "Antibacterial activity against ESBL-producing Escherichia coli clinical isolate 1 assessed as transparent well by visual inspection after 18 hrs by CLSI based-broth microdilution method", "format": "functional"}, "Escherichia coli [12]": {"system": "Escherichia coli", "assay": "Antibacterial activity against ESBL-producing Escherichia coli clinical isolate 3 assessed as transparent well by visual inspection after 18 hrs by CLSI based-broth microdilution method", "format": "functional"}, "Pseudomonas aeruginosa [13]": {"system": "Pseudomonas aeruginosa", "assay": "Antibacterial activity against Pseudomonas aeruginosa clinical isolate assessed as transparent well by visual inspection after 18 hrs by CLSI based-broth microdilution method", "format": "functional"}, "Staphylococcus aureus [14]": {"system": "Staphylococcus aureus", "assay": "Antibacterial activity against methicillin resistant Staphylococcus aureus clinical isolate 1 assessed as transparent well by visual inspection after 18 hrs by CLSI based-broth microdilution method", "format": "functional", "conditions": "C1"}, "Erythrocyte": {"system": "Erythrocyte", "assay": "Haemolytic activity in human erythrocytes at 256 uM by optical absorption assay", "format": "ADME, cell-based"}, "Cell membrane [15]": {"system": "Cell membrane", "assay": "Induction of outer membrane permeabilization in Escherichia coli using NPN hydrophobic fluorescent probe at 1 to 8 times of MIC measured for 15 mins by multimode reader"}, "Pseudomonas aeruginosa [16]": {"system": "Pseudomonas aeruginosa", "assay": "Inhibition of biofilm formation in multidrug-resistant Pseudomonas aeruginosa at 256 uM measured after 24 hrs by crystal violet staining based assay", "format": "functional, organism-based"}, "Cell membrane [17]": {"system": "Cell membrane", "assay": "Induction of inner membrane permeabilization in Escherichia coli ML-35 assessed as increase in ONPG at 1 to 8 times of MIC measured 100 mins by multimode reader"}}, "note": "The source made the active and inactive calls. The calls are words filed in the database; no cut-off is given here. Positions of bridges follow the written chain, without caps; N, C: chain ends. Non-standard residues stand in square brackets, D forms with d. Residues, ends and D or L forms follow the SMILES beside them. *: point of attachment. X1 = CC[C@H](C)CCCCC(=O)*; Dab = NCC[C@H](N)C(=O)O"}
{"compound": "H-PWKLSLKL-OH", "values": [{"measurement": "MIC", "setting": "Bacillus subtilis", "result": 16, "unit": "µM"}, {"measurement": "MIC", "setting": "[1]", "result": 16, "unit": "µM"}, {"measurement": "MIC", "setting": "Escherichia coli [2]", "result": 16, "unit": "µM"}, {"measurement": "MIC", "setting": "Staphylococcus aureus [3]", "result": 32, "unit": "µM"}, {"measurement": "MIC", "setting": "Enterobacter sp.", "result": 8, "unit": "µM"}, {"measurement": "MIC", "setting": "Pseudomonas aeruginosa [4]", "result": 32, "unit": "µM"}]}
{"compound": "H-PFKLSLKL-OH", "values": [{"measurement": "MIC", "setting": "Bacillus subtilis", "result": 16, "unit": "µM"}, {"measurement": "MIC", "setting": "[1]", "result": 16, "unit": "µM"}, {"measurement": "MIC", "setting": "Escherichia coli [2]", "result": 32, "unit": "µM"}, {"measurement": "MIC", "setting": "Staphylococcus aureus [3]", "result": 128, "unit": "µM"}, {"measurement": "MIC", "setting": "Enterobacter sp.", "result": 32, "unit": "µM"}, {"measurement": "MIC", "setting": "Pseudomonas aeruginosa [4]", "result": 32, "unit": "µM"}]}
{"compound": "H-PWKLKLKL-OH", "values": [{"measurement": "MIC", "setting": "Bacillus subtilis", "result": 16, "unit": "µM"}, {"measurement": "MIC", "setting": "[1]", "result": 16, "unit": "µM"}, {"measurement": "MIC", "setting": "Escherichia coli [2]", "result": 16, "unit": "µM"}, {"measurement": "MIC", "setting": "Staphylococcus aureus [3]", "result": 32, "unit": "µM"}, {"measurement": "MIC", "setting": "Enterobacter sp.", "result": 16, "unit": "µM"}, {"measurement": "MIC", "setting": "Pseudomonas aeruginosa [4]", "result": 64, "unit": "µM"}]}
{"compound": "CC[C@H](C)CCCCC(=O)N[C@@H](CCN)C(=O)N[C@H](C(=O)N[C@@H](CCN)C(=O)N[C@H]1CCNC(=O)[C@H]([C@@H](C)O)NC(=O)[C@H](CCN)NC(=O)[C@H](CCN)NC(=O)[C@H](CC(C)C)NC(=O)[C@@H](Cc2ccccc2)NC(=O)[C@H](CCN)NC1=O)[C@@H](C)O", "note": "(X1-[Dab]T[Dab][Dab][Dab][dF]L[Dab][Dab]T; lactam 4-C)", "values": [{"measurement": "MIC", "setting": "Staphylococcus aureus [5]", "result": 8, "unit": "µM"}, {"measurement": "MIC", "setting": "Bacillus subtilis", "result": 2, "unit": "µM"}, {"measurement": "MIC", "setting": "Escherichia coli [6]", "result": 0.5, "unit": "µM"}, {"measurement": "MIC", "setting": "Staphylococcus aureus [7]", "result": 8, "unit": "µM"}, {"measurement": "MIC", "setting": "Staphylococcus aureus [8]", "result": 8, "unit": "µM"}, {"measurement": "MIC", "setting": "Escherichia coli [9]", "result": 0.5, "unit": "µM"}, {"measurement": "MIC", "setting": "[1]", "result": 2, "unit": "µM"}, {"measurement": "MIC", "setting": "Escherichia coli [2]", "result": 0.5, "unit": "µM"}, {"measurement": "MIC", "setting": "Escherichia coli [10]", "result": 0.5, "unit": "µM"}, {"measurement": "MIC", "setting": "Staphylococcus aureus [3]", "result": 8, "unit": "µM"}, {"measurement": "MIC", "setting": "Escherichia coli [11]", "result": 0.5, "unit": "µM"}, {"measurement": "MIC", "setting": "Escherichia coli [12]", "result": 0.5, "unit": "µM"}, {"measurement": "MIC", "setting": "Enterobacter sp.", "result": 0.5, "unit": "µM"}, {"measurement": "MIC", "setting": "Pseudomonas aeruginosa [13]", "result": 1, "unit": "µM"}, {"measurement": "MIC", "setting": "Staphylococcus aureus [14]", "result": 8, "unit": "µM"}, {"measurement": "MIC", "setting": "Pseudomonas aeruginosa [4]", "result": 1, "unit": "µM"}]}
{"compound": "H-PFRLRLHL-OH", "values": [{"measurement": "MIC", "setting": "Bacillus subtilis", "result": 16, "unit": "µM"}, {"measurement": "MIC", "setting": "[1]", "result": 34, "unit": "µM"}, {"measurement": "MIC", "setting": "Escherichia coli [2]", "result": 16, "unit": "µM"}, {"measurement": "MIC", "setting": "Staphylococcus aureus [3]", "result": 128, "unit": "µM"}, {"measurement": "MIC", "setting": "Enterobacter sp.", "result": 32, "unit": "µM"}, {"measurement": "MIC", "setting": "Pseudomonas aeruginosa [4]", "result": 32, "unit": "µM"}]}
{"compound": "H-PFRLSLRL-OH", "values": [{"measurement": "MIC", "setting": "Bacillus subtilis", "result": 16, "unit": "µM"}, {"measurement": "MIC", "setting": "[1]", "result": 16, "unit": "µM"}, {"measurement": "MIC", "setting": "Escherichia coli [2]", "result": 8, "unit": "µM"}, {"measurement": "MIC", "setting": "Staphylococcus aureus [3]", "result": 64, "unit": "µM"}, {"measurement": "MIC", "setting": "Enterobacter sp.", "result": 16, "unit": "µM"}, {"measurement": "MIC", "setting": "Pseudomonas aeruginosa [4]", "result": 32, "unit": "µM"}]}
{"compound": "H-PFKLKLKL-OH", "values": [{"measurement": "MIC", "setting": "Bacillus subtilis", "result": 16, "unit": "µM"}, {"measurement": "MIC", "setting": "[1]", "result": 16, "unit": "µM"}, {"measurement": "MIC", "setting": "Escherichia coli [2]", "result": 32, "unit": "µM"}, {"measurement": "MIC", "setting": "Staphylococcus aureus [3]", "result": 128, "unit": "µM"}, {"measurement": "MIC", "setting": "Enterobacter sp.", "result": 32, "unit": "µM"}, {"measurement": "MIC", "setting": "Pseudomonas aeruginosa [4]", "result": 32, "unit": "µM"}]}
{"compound": "H-PFKLSLHL-OH", "values": [{"measurement": "MIC", "setting": "Staphylococcus aureus [5]", "result": 128, "unit": "µM"}, {"measurement": "MIC", "setting": "Bacillus subtilis", "result": 32, "unit": "µM"}, {"measurement": "MIC", "setting": "Escherichia coli [6]", "result": 32, "unit": "µM"}, {"measurement": "MIC", "setting": "Staphylococcus aureus [7]", "result": 128, "unit": "µM"}, {"measurement": "MIC", "setting": "Staphylococcus aureus [8]", "result": 128, "unit": "µM"}, {"measurement": "MIC", "setting": "Escherichia coli [9]", "result": 32, "unit": "µM"}, {"measurement": "MIC", "setting": "[1]", "result": 64, "unit": "µM"}, {"measurement": "Activity", "setting": "Erythrocyte", "result": "Toxic"}, {"measurement": "MIC", "setting": "Escherichia coli [2]", "result": 32, "unit": "µM"}, {"measurement": "Activity", "setting": "Cell membrane [15]", "result": "Dose-Dependent Effect"}, {"measurement": "MIC", "setting": "Escherichia coli [10]", "result": 32, "unit": "µM"}, {"measurement": "MIC", "setting": "Staphylococcus aureus [3]", "result": 128, "unit": "µM"}, {"measurement": "MIC", "setting": "Escherichia coli [11]", "result": 32, "unit": "µM"}, {"measurement": "inhibition", "setting": "Pseudomonas aeruginosa [16]", "result": "Active"}, {"measurement": "MIC", "setting": "Escherichia coli [12]", "result": 32, "unit": "µM"}, {"measurement": "MIC", "setting": "Enterobacter sp.", "result": 64, "unit": "µM"}, {"measurement": "MIC", "setting": "Pseudomonas aeruginosa [13]", "result": 32, "unit": "µM"}, {"measurement": "MIC", "setting": "Staphylococcus aureus [14]", "result": 128, "unit": "µM"}, {"measurement": "Activity", "setting": "Cell membrane [17]", "result": "Active"}, {"measurement": "MIC", "setting": "Pseudomonas aeruginosa [4]", "result": 32, "unit": "µM"}]}
